# Test results: patent publication US6420558B1, “Aminopiperidine derivates as integrin αvβ3 antagonists” (Meiji Seika Kaisha, Ltd., priority 1998, dated 2002)
# How the values were obtained:
# [1] = Acute toxicity test in mice; type: in vivo; conditions: intravenously administered to three mice at a dose of 50 mg/kg
# Experimental: The compound of Example 52 was intravenously administered to three mice at a dose of 50 mg/kg.
# GP IIb/IIIa = GP IIb/IIIa (Homo sapiens, UniProt P05106+P08514); experiment: GP IIb/IIIa antagonistic activity (method of Pharmacological Test 2 in WO 94/21599); type: binding
# Experimental: GP IIb/IIIa Antagonistic Activity and Human Platelet Aggregation Inhibitory Activity
# GP IIb/IIIa antagonistic activity was measured for the compounds according to the present invention. The measurement of the GP IIb/IIIa antagonistic activity was carried out according to the method described in Pharmacological Test 2 in WO 94/21599.
# [2] = system: human vascular smooth muscle cells adhering to immobilized human vitronectin; experiment: Inhibitory activity against adhesion of human vascular smooth muscle cells to vitronectin; type: cell-based; conditions: 1.5 h; human vitronectin-coated plate, 90 min
# Experimental: Inhibitory Activity Against Adhesion of Human Vascular Smooth Muscle Cells to Vitronectin
# The adhesion of human vascular smooth muscle cells =+to immobilized human vitronectin was measured in accordance with the method of Liaw et al. (Liaw L, Almeida M, Hart C E, Schwartz S M, and Giachelli C M, Circulation Research, 74 (2), 214-224 (1994)).
# A Dulbecco's phosphate buffer (Dulbecco's PBS(−), Nissui Pharmaceutical Co., Ltd.) solution of human plasma-derived vitronectin (CALBIOCHEM) adjusted to a concentration of 4 μg/ml was first added to wells (50 μl/well) of a microplate (Maxisorp, Nunc), and a reaction for immobilization was allowed to proceed at 4° C. overnight. After washing twice with 150 μl of Dulbecco's phosphate buffer, a Dulbecco's phosphate buffer containing 10 mg/ml of bovine serum albumin (SIGMA) was added, followed by blocking at 37° C. for one hr. The assay plate was washed twice with 150 μl of Dulbecco's phosphate buffer.
# Separately, human vascular smooth muscle cells cultivated at 37° C. under 5% carbon dioxide in a medium for vascular smooth muscle cells (Clonetics) were separated using a Dulbecco's phosphate buffer containing trypsin-EDTA (GIBCO BRL), washed with Dulbecco's phosphate buffer, and then suspended in a Dulbecco's modified Eagle's basal medium (Nissui Pharmaceutical Co., Ltd.) containing 0.1% bovine serum albumin to a concentration of 5×10^5/ml.
# Next, 50 μl of a Dulbecco's modified Eagle's basal medium containing 10 mg/ml of bovine serum albumin with a medicament added thereto was added to the wells of the human vitronectin-coated assay microplate, followed by pre-cultivation under 5% carbon dioxide at 37° C. for 10 min. Thereafter, 50 μl of the medium with human vascular smooth muscle cells suspended therein was added thereto, and the plate was thoroughly stirred. A reaction was allowed to proceed under 5% carbon dioxide at 37° C. for 90 min. The reaction solution containing non-adherent cells were then removed, followed by washing three times with Dulbecco's phosphate buffer. For the adhered cells, 100 μl of a Dulbecco's phosphate buffer containing 4% paraformaldehyde (Wako Pure Chemical Industries, Ltd.) was added, and immobilization was allowed to proceed at room temperature for 10 min. Next, 100 μl of a Dulbecco's phosphate buffer containing 0.5% Toluidine Blue (Croma) and 4% paraformaldehyde was added, and staining was allowed to proceed at room temperature for 5 min, followed by thorough washing with distilled water. The inside of the wells was then air-dried, and a 1% aqueous sodium dodecylsulfate solution was then added to perform cytolysis. The absorbance of the microplate thus obtained was measured at 595 nm. […] The inhibition was calculated by the following equation. IC50 was determined from a primary regression line of the logarithm of each concentration of the test compound and the logarithm of (100−inhibition)/inhibition. [formula]
# [3] = target: T1, integrin α5β1 (fibronectin receptor purified from the human placenta) (Homo sapiens, UniProt P05556+P08648); experiment: α5β1 binding assay (fibronectin-fibronectin receptor binding assay); conditions: fibronectin binding to human placenta fibronectin receptor; read-out: α5β1 Binding inhibitory activity
# T1 construct: a fibronectin receptor (protein content: 52.1 μg/ml) purified from the human placenta; from tissue; host or cells: human placenta
# Experimental: Integrin α5β1 antagonistic activity (lethality) was measured for the compounds according to the present invention in a fibronectin-fibronectin receptor binding assay system in accordance with the method of Kouns et al. (W. C. Kouns, D. Kirchhofer, P. Hadvary, A. Edenhofer, T. Weller, G. Pfenninger, H. R. Baumgartner, L. K. Jennings, and B. Steiner, Blood, 80, 2539-2547 (1992)).
# Specifically, a fibronectin receptor (protein content: 52.1 μg/ml) purified from the human placenta by the method of Pytela et al. (R. Pytela, M. D. Pierschbacher, S. Argraves, S. Suzuki, and E. Ruoslahti, Method in Enzymology, 144, 475-489 (1987)) was diluted 25 times with TBS (20 mM Tris-HCl, 150 mM NaCl, 1 mM CaCl2, 1 mM MgCl2, pH 7.4), and distributed and coated on wells (50 μl/well) of a plate (Maxisorp, Nunc, 96 well Immuno Plate). The plate was then allowed to stand at 4° C. for one day, washed twice with TBS (200 μl/well), and then subjected to blocking with TBS (150 μl/well) containing 3% skim milk (DIFCO) at 4° C. overnight. After washing twice with TBS (200 μl/well) containing 0.05% Tween-20 and then washing twice with TBS (200 μl/well), purification was carried out according to the method of E. Engvall et al. (E. Engvall, E. Ruoslahti, and E. J. Miller, J. Exp. Med., 147, 1584-1595 (1978)), and 50 […] of fibronectin adjusted to 0.2 μg/ml by the addition of TBS (TBS-Tween) containing 0.01% Tween-20 was mixed with 50 μl of each test compound adjusted to each concentration in the wells, and a reaction was allowed to proceed at room temperature for 3 hr. After the completion of the reaction, the wells were washed five times with TBS-Tween. A solution prepared by diluting a peroxidase-labeled fibronectin antibody (CAPPEL) 500 times with TBS-Tween was added in an amount of 50 μl per well, and a reaction was allowed to proceed at room temperature for 1.5 hr. After washing five times with TBS-Tween (200 μl/well), ABTS (SIGMA) adjusted to 1 mg/ml by the addition of a ten-fold diluted POD-buffer (ZYMED) was added in an amount of 50 μl/well, and a reaction was allowed to proceed for 5 to 10 min. A 0.1 M citric acid buffer (pH 4.3) containing 0.05% NaN3 was added in an amount of 50 μl/well to stop the reaction, followed by the measurement of the absorbance at 415 nm with a microplate reader (MTP 32, Corona Electric) (reference: 675 nm). The total binding was defined as the absorbance after a reaction using 50 μl of TBS-Tween instead of the test compound, and the non-specific binding (100% inhibition) was defined as the absorbance after a reaction using 50 μl of TBS-Tween containing 2×10^−3 M RGDS. The inhibition was calculated by the following equation: [formula]
# IC50 was determined from a primary regression line of the logarithm of each concentration of the test compound and the logarithm of (100−inhibition)/inhibition.
# GP IIb/IIIa, sequence (P08514 32-887 limits assumed): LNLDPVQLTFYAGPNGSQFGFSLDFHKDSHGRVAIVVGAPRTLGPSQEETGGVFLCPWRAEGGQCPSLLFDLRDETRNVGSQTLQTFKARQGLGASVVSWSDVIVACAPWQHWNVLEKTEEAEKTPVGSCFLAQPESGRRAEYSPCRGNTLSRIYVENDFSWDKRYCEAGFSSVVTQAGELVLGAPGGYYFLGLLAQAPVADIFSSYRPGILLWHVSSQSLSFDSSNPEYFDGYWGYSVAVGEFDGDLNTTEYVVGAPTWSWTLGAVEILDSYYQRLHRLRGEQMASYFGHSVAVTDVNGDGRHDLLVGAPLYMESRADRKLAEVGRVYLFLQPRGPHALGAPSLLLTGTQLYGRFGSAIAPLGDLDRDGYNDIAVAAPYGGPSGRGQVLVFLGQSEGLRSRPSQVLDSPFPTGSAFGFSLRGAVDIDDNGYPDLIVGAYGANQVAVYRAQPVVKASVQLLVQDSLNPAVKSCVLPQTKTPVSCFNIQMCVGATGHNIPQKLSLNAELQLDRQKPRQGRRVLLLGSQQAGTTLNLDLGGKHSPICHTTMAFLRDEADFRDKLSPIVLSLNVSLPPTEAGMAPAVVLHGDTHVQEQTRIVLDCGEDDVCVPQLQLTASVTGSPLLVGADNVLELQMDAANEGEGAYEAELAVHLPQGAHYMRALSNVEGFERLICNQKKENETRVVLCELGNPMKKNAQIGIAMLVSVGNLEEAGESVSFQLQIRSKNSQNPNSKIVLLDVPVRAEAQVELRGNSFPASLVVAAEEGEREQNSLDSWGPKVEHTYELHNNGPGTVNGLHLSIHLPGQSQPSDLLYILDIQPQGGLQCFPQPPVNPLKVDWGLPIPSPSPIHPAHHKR
# GP IIb/IIIa, sequence (P08514 891-1039 limits assumed): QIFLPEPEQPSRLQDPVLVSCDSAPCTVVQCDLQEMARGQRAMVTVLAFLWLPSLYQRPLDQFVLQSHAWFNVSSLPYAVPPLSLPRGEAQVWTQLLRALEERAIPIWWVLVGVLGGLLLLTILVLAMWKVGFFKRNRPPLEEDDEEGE
# GP IIb/IIIa, sequence (P05106 27-788): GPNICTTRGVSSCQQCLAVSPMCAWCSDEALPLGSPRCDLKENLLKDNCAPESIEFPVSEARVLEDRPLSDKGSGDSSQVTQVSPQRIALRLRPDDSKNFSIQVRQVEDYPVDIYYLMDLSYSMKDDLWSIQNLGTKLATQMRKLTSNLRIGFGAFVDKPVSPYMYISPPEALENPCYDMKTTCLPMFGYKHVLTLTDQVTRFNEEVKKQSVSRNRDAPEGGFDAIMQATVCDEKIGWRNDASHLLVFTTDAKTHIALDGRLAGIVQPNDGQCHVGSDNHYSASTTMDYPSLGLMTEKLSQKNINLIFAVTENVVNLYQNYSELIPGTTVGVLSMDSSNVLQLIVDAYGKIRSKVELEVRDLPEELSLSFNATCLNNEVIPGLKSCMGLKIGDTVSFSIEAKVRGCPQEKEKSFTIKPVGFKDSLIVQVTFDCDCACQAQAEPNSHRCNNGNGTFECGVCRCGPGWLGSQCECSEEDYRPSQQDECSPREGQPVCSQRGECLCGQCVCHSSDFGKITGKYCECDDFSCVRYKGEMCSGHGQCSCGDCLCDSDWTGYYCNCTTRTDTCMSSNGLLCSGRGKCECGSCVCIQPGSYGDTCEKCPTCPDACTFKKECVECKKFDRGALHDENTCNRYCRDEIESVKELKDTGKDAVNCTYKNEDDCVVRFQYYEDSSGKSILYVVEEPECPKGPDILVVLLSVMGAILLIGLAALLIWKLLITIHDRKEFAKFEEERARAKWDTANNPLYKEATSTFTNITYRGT
# T1 sequence (P08648 42-894 limits assumed): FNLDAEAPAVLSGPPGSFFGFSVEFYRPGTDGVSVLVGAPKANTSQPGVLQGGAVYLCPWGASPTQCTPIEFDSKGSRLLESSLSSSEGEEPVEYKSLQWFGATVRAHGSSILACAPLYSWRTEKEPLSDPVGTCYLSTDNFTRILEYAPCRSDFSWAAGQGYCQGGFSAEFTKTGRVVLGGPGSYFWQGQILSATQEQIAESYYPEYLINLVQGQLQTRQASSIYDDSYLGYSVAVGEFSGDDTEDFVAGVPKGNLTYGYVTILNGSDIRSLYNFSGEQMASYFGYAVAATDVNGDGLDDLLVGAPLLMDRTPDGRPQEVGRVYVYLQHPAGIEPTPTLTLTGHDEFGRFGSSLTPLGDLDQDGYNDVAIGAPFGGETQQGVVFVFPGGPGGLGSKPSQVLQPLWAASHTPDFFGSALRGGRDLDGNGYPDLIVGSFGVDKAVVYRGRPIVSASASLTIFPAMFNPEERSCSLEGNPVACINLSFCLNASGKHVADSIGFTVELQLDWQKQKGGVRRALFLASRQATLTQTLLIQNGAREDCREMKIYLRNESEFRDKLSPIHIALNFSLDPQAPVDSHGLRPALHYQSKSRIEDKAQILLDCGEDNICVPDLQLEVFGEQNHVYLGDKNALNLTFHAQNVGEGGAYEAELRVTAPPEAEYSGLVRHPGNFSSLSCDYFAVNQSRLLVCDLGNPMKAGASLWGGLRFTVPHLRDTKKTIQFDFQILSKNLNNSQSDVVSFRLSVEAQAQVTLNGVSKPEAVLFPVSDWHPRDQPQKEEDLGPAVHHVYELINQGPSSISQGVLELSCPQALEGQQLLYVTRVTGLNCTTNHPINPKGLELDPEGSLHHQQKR
# T1 sequence (P08648 895-1049 limits assumed): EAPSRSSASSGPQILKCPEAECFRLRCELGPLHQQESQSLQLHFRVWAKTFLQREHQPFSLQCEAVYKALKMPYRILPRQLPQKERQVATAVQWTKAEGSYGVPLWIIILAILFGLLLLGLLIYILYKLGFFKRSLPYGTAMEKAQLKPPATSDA
# T1 sequence (P05556 21-798): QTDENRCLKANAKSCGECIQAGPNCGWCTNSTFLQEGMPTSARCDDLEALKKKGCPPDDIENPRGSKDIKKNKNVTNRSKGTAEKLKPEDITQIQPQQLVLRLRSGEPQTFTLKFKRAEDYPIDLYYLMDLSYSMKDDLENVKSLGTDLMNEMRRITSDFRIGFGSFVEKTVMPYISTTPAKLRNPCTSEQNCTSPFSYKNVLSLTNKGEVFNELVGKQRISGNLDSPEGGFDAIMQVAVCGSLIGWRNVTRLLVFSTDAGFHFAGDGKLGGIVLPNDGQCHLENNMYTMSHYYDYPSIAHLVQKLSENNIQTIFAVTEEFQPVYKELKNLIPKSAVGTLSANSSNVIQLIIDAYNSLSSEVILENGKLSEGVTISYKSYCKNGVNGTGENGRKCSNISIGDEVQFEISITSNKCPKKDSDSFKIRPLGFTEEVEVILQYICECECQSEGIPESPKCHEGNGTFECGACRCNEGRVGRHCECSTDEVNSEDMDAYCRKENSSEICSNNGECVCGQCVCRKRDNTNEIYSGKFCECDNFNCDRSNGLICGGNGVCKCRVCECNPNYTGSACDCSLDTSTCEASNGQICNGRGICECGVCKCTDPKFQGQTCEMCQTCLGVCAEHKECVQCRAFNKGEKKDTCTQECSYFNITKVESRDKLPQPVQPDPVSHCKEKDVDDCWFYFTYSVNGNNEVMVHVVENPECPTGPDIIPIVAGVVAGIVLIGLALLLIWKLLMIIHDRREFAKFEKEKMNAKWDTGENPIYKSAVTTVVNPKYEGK
smiles,measurement,setting,value
"O=C(NC[C@H](NS(=O)(=O)c1ccccc1)C(=O)O)c1ccc(N2CCC(NC3=NCCCN3)CC2)c(F)c1 [Example 52, (2S)-Benzenesulfonylamino-3-[3-fluoro-4-{4-(1,4,5,6-tetrahydropyrimidin-2-ylamino)piperidin-1-yl}-benzoylamino]propionic acid]",survival in acute toxicity test,[1],all the mice survived
same,change in weight in acute toxicity test,[1]; compared with solvent group,the same as a group of mice to which only a solvent had been administrered
same,IC50,GP IIb/IIIa,≤ 1 nM
same,IC50,[2],≤ 70 nM
same,IC50,[3],330 nM
